We go through 18 compounds from patent publication US10077261B2, “Imidazolin-5-one derivative useful as FASN inhibitors for the treatment of cancer” (Janssen Pharmaceutica NV, priority 2012, dated 2018).

Test [1] concerns the target Fatty Acid Synthase Keto-reductase Domain (FASN KR) (Homo sapiens, UniProt P49327). Briefly: Fatty Acid Synthase keto-reductase domain (FASN KR) inhibition, NADPH oxidation at 340 nm.
Procedure: After 20 minutes incubation at room temperature the plate was measured again (T2).
The decrease in absorbance was calculated as (Absorbance before incubation T1)−(Absorbance following incubation T2).
A plot of Controlmin versus test compound concentration was fitted to a 4-parameter logistic curve using a non-linear least squares regression method.
In test [2] the test system is PC-3M-Luc-C6 prostate cells. Briefly: In vitro PC-3M-Luc-C6 prostate cell proliferation assay in lipid reduced medium. It counts as cell-based. The conditions noted are these: 96 h, read-out: pIC50 PC-3M-Luc-C6 prostate cell (converted).
For test [3], the target named is T1, hFASN enzyme (full length) (Homo sapiens, UniProt P49327).
T1 construct: 10 μL hFASN enzyme (full length, 300 ng, purified in house); made in house
As to the kind of experiment: Fatty Acid Synthase (FASN) inhibition scintillation proximity assay. The test is classed as biochemical. The conditions noted are these: for inhibition at 10 µM: read-out: Human FASN % inhibition @ 10 μM, 10 μM test compound; for IC50: read-out: Human FASN pIC50 (converted). The method in brief: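 Full-length in-house purified enzyme (300 ng) was tested in 100 mM KH2PO4 pH 7.5, 1 mM DTT with ³H-acetyl-CoA and malonyl-CoA as substrates; compounds ranged 0.01–30 μM. Reactions were stopped with streptavidin imaging beads, read by LEADseeker at 610 nm, and fitted to a 4-parameter logistic curve.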
(SPA uses beads or plates that emit light when radiolabelled molecules are held near them.)

Test [4] relates to LNCaP-Vancouver prostate cells. As to the kind of experiment: In vitro LNCaP Vancouver prostate cell proliferation assay in lipid reduced medium. It counts as cell-based. The following applies: read-out: pIC50 LNCaP_Vancouver prostate cell (converted).

Molecules are shown by their SMILES. Bounds are passed on as bounds.

A word on the inhibition: it is the drop in the measured response relative to a control, in per cent.

Fatty Acid Synthase Keto-reductase Domain (FASN KR), sequence (P49327 whole entry, the tested form may be a part): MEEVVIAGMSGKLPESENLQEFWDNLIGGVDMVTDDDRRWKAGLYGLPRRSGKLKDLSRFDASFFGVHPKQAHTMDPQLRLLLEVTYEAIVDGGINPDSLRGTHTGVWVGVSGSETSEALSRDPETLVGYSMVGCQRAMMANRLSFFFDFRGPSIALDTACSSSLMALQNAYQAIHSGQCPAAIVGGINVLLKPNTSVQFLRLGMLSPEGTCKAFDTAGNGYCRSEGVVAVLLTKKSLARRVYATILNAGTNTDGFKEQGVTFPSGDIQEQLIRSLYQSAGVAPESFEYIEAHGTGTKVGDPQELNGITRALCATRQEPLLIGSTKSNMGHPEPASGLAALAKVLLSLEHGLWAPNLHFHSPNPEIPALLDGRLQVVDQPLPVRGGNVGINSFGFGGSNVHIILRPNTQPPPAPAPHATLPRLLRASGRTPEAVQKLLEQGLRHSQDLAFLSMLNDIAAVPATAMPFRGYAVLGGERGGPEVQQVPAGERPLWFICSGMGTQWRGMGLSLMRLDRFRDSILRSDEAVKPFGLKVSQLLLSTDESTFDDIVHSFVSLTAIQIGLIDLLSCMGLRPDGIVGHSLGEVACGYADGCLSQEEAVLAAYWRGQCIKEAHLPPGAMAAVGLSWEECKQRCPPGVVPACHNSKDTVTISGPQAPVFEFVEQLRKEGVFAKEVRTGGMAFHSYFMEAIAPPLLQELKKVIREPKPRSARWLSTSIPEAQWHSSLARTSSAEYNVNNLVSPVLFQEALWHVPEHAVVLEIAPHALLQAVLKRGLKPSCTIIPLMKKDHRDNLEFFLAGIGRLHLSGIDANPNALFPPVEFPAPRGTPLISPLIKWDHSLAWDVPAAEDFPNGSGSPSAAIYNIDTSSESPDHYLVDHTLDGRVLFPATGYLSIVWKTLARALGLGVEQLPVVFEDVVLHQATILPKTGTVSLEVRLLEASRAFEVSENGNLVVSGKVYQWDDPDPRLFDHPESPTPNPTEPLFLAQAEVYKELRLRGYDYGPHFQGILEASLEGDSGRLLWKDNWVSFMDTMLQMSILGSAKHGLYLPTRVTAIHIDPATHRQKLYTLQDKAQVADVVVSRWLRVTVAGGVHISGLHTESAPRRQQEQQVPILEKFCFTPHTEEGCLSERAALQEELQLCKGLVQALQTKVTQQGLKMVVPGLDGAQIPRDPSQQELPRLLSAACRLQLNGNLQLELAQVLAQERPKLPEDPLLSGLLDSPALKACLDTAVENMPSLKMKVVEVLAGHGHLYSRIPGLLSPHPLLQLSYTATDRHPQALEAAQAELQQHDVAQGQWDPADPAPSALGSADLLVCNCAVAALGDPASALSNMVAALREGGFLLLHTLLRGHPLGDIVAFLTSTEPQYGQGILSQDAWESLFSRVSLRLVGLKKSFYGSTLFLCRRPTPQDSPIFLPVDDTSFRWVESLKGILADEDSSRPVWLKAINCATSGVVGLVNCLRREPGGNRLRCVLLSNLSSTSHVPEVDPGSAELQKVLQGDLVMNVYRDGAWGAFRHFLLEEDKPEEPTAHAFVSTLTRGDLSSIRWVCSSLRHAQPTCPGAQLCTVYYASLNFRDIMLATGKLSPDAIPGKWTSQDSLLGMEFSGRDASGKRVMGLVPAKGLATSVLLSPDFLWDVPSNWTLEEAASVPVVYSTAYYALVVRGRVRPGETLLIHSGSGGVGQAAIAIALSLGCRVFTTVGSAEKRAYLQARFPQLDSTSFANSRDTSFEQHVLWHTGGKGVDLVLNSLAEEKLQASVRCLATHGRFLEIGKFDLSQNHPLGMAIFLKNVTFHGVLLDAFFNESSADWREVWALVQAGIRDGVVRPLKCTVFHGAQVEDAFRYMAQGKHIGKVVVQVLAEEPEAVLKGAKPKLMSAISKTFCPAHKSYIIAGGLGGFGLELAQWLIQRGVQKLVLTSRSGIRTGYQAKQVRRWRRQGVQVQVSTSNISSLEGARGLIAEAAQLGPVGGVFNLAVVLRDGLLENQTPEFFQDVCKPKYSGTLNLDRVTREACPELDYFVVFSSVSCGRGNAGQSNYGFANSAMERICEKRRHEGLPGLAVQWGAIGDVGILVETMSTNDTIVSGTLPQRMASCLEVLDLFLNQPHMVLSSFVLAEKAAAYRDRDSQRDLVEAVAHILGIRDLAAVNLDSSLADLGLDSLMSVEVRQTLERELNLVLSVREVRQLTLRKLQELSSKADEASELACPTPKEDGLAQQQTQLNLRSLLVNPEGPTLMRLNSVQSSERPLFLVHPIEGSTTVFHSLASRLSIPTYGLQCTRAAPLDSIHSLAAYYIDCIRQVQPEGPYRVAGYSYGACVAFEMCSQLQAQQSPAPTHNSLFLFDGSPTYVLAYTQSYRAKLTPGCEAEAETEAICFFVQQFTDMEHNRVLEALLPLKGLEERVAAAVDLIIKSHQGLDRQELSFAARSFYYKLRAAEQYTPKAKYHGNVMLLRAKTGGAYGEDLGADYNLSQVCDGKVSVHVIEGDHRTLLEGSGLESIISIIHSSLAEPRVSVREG
T1 sequence (P49327 whole entry): as the sequence (P49327 whole entry, the tested form may be a part) above

For the compound `O=C(C1CC1)N1CC[C@@H](CN2C(=O)C3(CC3)N=C2c2ccc(-c3ccc4cncnc4c3)cc2)C1` [compound 312, (R)-6-((1-(cyclopropanecarbonyl)pyrrolidin-3-yl)methyl)-5-(4-(quinazolin-7-yl)phenyl)-4,6-diazaspiro[2.4]hept-4-en-7-one], the IC50 is 0.0759 µM in test [1], around 0.0525 µM in test [2], 0.0759 µM in test [3] and 0.123 µM in test [4]. In addition, the inhibition at 10 µM in test [3] turned out to be 101%.

`O=C(C1CC1)N1CC(CN2C(=O)C3(CC3)N=C2c2ccc(-c3ccc4cccnc4c3F)cc2)C1` [compound 315, 6-((1-(cyclopropanecarbonyl)azetidin-3-yl)methyl)-5-(4-(8-fluoroquinolin-7-yl)phenyl)-4,6-diazaspiro[2.4]hept-4-en-7-one]: the IC50 in test [1] was 0.251 µM; in test [2], 0.123 µM; in test [3], 0.0661 µM; in test [4] it was 0.631 µM. Further, the inhibition at 10 µM in test [3] stood at 98%.

`Cn1ccc2cc(-c3ccc(C4=NC5(CC5)C(=O)N4CC4CN(C(=O)C5CC5)C4)cc3)ccc21` [compound 344, 6-((1-(cyclopropanecarbonyl)azetidin-3-yl)methyl)-5-(4-(1-methyl-1H-indol-5-yl)phenyl)-4,6-diazaspiro[2.4]hept-4-en-7-one]: the IC50 is 0.0457 µM in test [1], around 0.0324 µM in test [2], 0.0257 µM in test [3] and 0.141 µM in test [4]. Also, the inhibition at 10 µM in test [3] was found to be 99%.

In the case of `Cc1cc(-c2ccc3c(cnn3C)c2)ccc1C1=NC2(CC2)C(=O)N1CC1CN(C(=O)CC2CC2)C1` [compound 499, 6-{[1-(Cyclopropylacetyl)azetidin-3-yl]methyl}-5-[2-methyl-4-(1-methyl-1H-indazol-5-yl)phenyl]-4,6-diazaspiro[2.4]hept-4-en-7-one], the IC50 in test [1] was 0.479 µM; in test [2], 0.457 µM; in test [3] it was 0.245 µM; in test [4] it was 4.27 µM. In test [3], the inhibition at 10 µM came to 96%.

In the case of `O=C(C1CC1)N1CC(CN2C(=O)C3(CC3)N=C2c2ccc(-c3ccc4cnc(F)cc4c3)cc2)C1` [compound 502, 6-{[1-(Cyclopropylcarbonyl)azetidin-3-yl]methyl}-5-[4-(3-fluoroisoquinolin-6-yl)phenyl]-4,6-diazaspiro[2.4]hept-4-en-7-one], the IC50 in test [1] was 2.14 µM; in test [2], 1.17 µM; in test [3], 0.355 µM; in test [4], 4.17 µM. In addition, the inhibition at 10 µM in test [3] amounted to 94%.

As to `Cn1cc2cc(-c3ccc(C4=NC5(CC5)C(=O)N4CC4CN(C(=O)C5CC5)C4)cc3)ccc2n1` [compound 507, 6-{[1-(Cyclopropylcarbonyl)azetidin-3-yl]methyl}-5-[4-(2-methyl-2H-indazol-5-yl)phenyl]-4,6-diazaspiro[2.4]hept-4-en-7-one], the IC50 was 3.63 µM in test [1], around 1.17 µM in test [2], 0.417 µM in test [3] and 6.03 µM in test [4]. The inhibition at 10 µM in test [3] amounted to 89%.

For `O=C(C1CC1)N1CC(CN2C(=O)C3(CC3)N=C2c2ccc(-c3ccc4cccnc4n3)cc2)C1` [compound 511, 6-{[1-(Cyclopropylcarbonyl)azetidin-3-yl]methyl}-5-[4-(1,8-naphthyridin-2-yl)phenyl]-4,6-diazaspiro[2.4]hept-4-en-7-one], the IC50 in test [1] was 3.16 µM; in test [2], around 0.891 µM; in test [3], 0.355 µM; in test [4] it was 4.68 µM. The inhibition at 10 µM in test [3] was 94%.

In the case of `Cn1ncc2c(-c3ccc(C4=NC5(CC5)C(=O)N4CC4CN(C(=O)C5CC5)C4)cc3)cccc21` [compound 515, 6-{[1-(Cyclopropylcarbonyl)azetidin-3-yl]methyl}-5-[4-(1-methyl-1H-indazol-4-yl)phenyl]-4,6-diazaspiro[2.4]hept-4-en-7-one], the IC50 in test [1] was 0.437 µM; in test [2], 0.562 µM; in test [3] it was 0.182 µM; in test [4] it was 2.14 µM. In addition, in test [3], the inhibition at 10 µM amounted to 96%.

Consider `Cn1cc(-c2ccc(-c3ccc(C4=NC5(CC5)C(=O)N4CC4CN(C(=O)C5CC5)C4)cc3)cn2)cn1` [compound 517, 6-{[1-(Cyclopropylcarbonyl)azetidin-3-yl]methyl}-5-{4-[6-(1-methyl-1H-pyrazol-4-yl)pyridin-3-yl]phenyl}-4,6-diazaspiro[2.4]hept-4-en-7-one], for which the IC50 in test [1] was 1.51 µM; in test [2] it was 1.26 µM; in test [3], 0.646 µM; in test [4], around 5.25 µM. The inhibition at 10 µM in test [3] stood at 88%.

Turning to `O=C(C1CC1)N1CC(CN2C(=O)C3(CC3)N=C2c2ccc(-c3cnc4ccccc4c3)cc2)C1` [compound 519, 6-{[1-(Cyclopropylcarbonyl)azetidin-3-yl]methyl}-5-(4-quinolin-3-ylphenyl)-4,6-diazaspiro[2.4]hept-4-en-7-one], the IC50 in test [1] is 0.389 µM; in test [2] it was 0.55 µM; in test [3], 0.158 µM; in test [4], 2.69 µM. Besides, the inhibition at 10 µM in test [3] turned out to be 96%.

With `Cn1cc(-c2ccc(-c3ccc(C4=NC5(CCOCC5)C(=O)N4C[C@@H]4CCN(C(=O)C5CC5)C4)cc3)cc2)cn1` [compound 655, 3-{[(3R)-1-(cyclopropylcarbonyl)pyrrolidin-3-yl]methyl}-2-[4′-(1-methyl-1H-pyrazol-4-yl)biphenyl-4-yl]-8-oxa-1,3-diazaspiro[4.5]dec-1-en-4-one], the IC50 in test [1] is 0.407 µM; in test [2] it was around 0.234 µM; in test [3] it was 0.178 µM; in test [4] it was around 2.51 µM. In test [3], the inhibition at 10 µM worked out at 99%.

`Cn1cc(-c2ccc(-c3ccc(C4=NC5(CCOCC5)C(=O)N4C[C@@H]4CCN(C(=O)[C@H]5CCCO5)C4)cc3)cc2)cn1` [compound 657, 2-[4′-(1-Methyl-1H-pyrazol-4-yl)biphenyl-4-yl]-3-({(3R)-1-[(2R)-tetrahydro-furan-2-ylcarbonyl]pyrrolidin-3-yl}methyl)-8-oxa-1,3-diazaspiro[4.5]dec-1-en-4-one]: the IC50 in test [1] is 0.661 µM; in test [2] it was 0.589 µM; in test [3] it was 0.309 µM; in test [4], 3.8 µM. For the same compound, the inhibition at 10 µM in test [3] was 97%.

Take `O=C([C@H]1CCCO1)N1CC[C@@H](CN2C(=O)C3(CCOCC3)N=C2c2ccc(-c3ccc4cccnc4c3)cc2)C1` [compound 663, 2-(4-Quinolin-7-ylphenyl)-3-({(3R)-1-[(2R)-tetrahydro-furan-2-ylcarbonyl]pyrrolidin-3-yl}methyl)-8-oxa-1,3-diazaspiro[4.5]dec-1-en-4-one]: the IC50 in test [1] was 0.275 µM; in test [2] it was 0.117 µM; in test [3] it was 0.0646 µM; in test [4], 0.55 µM. Besides, the inhibition at 10 µM in test [3] was 100%.

As for `Cn1ncc2cc(-c3ccc(C4=NC5(CCOCC5)C(=O)N4C[C@@H]4CCN(C(=O)[C@H]5CCCO5)C4)cc3)ccc21` [compound 674, 2-[4-(1-Methyl-1H-indazol-5-yl)phenyl]-3-({(3R)-1-[(2R)-tetrahydro-furan-2-ylcarbonyl]pyrrolidin-3-yl}methyl)-8-oxa-1,3-diazaspiro[4.5]dec-1-en-4-one], the IC50 in test [1] is 3.16 µM; in test [2], around 0.813 µM; in test [3] it was 0.457 µM; in test [4] it was around 4.9 µM. Further, in test [3], the inhibition at 10 µM was 94%.

With `Cn1cc(-c2ccc(-c3ccc(C4=NC5(CCOC5)C(=O)N4C[C@@H]4CCN(C(=O)C5CC5)C4)cc3)cc2)cn1` (stereo partly drawn) [compound 676, 3-{[(3R)-1-(Cyclopropylcarbonyl)pyrrolidin-3-yl]methyl}-2-[4′-(1-methyl-1H-pyrazol-4-yl)biphenyl-4-yl]-7-oxa-1,3-diazaspiro[4.4]non-1-en-4-one], the IC50 was 0.603 µM in test [1], 0.501 µM in test [2], 0.269 µM in test [3] and 1.78 µM in test [4]. In test [3], the inhibition at 10 µM was 98%.

On to `O=C([C@H]1CCCO1)N1CC[C@@H](CN2C(=O)C3(CCOC3)N=C2c2ccc(-c3ccc4occc4c3)cc2)C1` (stereo partly drawn) [compound 688, 2-[4-(1-Benzofuran-5-yl)phenyl]-3-({(3R)-1-[(2R)-tetrahydro-furan-2-ylcarbonyl]pyrrolidin-3-yl}methyl)-7-oxa-1,3-diazaspiro[4.4]non-1-en-4-one], for which the IC50 was 0.525 µM in test [1], 0.832 µM in test [2], 0.214 µM in test [3] and 2.95 µM in test [4]. Moreover, in test [3], the inhibition at 10 µM is 99%.

As to `Cn1ncc2cc(-c3ccc(C4=NC5(CCOC5)C(=O)N4C[C@@H]4CCN(C(=O)[C@H]5CCCO5)C4)cc3)ccc21` (stereo partly drawn) [compound 692, 2-[4-(1-Methyl-1H-indazol-5-yl)phenyl]-3-({(3R)-1-[(2R)-tetrahydro-furan-2-ylcarbonyl]pyrrolidin-3-yl}metrhyl)-7-oxa-1,3-diazaspiro[4.4]non-1-en-4-one], the IC50 in test [1] is 3.24 µM; in test [2], 1.58 µM; in test [3], 0.794 µM; in test [4], 4.57 µM. The inhibition at 10 µM in test [3] amounted to 99%.

In the case of `CC(O)C(=O)N1CC(CN2C(=O)C3(CCOCC3)N=C2c2ccc(-c3ccc4cccnc4c3)cc2)C1` (stereo not drawn) [compound 699, 3-{[1-(2-Hydroxypropanoyl)azetidin-3-yl]methyl}-2-(4-quinolin-7-ylphenyl)-8-oxa-1,3-diazaspiro[4.5]dec-1-en-4-one], the IC50 in test [1] is 5.37 µM; in test [2] it was 5.13 µM; in test [3] it was around 0.724 µM; in test [4], above 10 µM. In addition, the inhibition at 10 µM in test [3] turned out to be 89%.
